Marks after values point to notes of the source that are not given here. Where a SMILES comes first, the peptide text is derived from it. Bridges are numbered along the chain shown (N, C = ends). Where no end group is shown, it is not given here. [ ]: non-standard residue; d: D form. Orn = NCCC[C@H](N)C(=O)O
Assays:
vas deferens = conditions: read-out: EC50 value; half maximal inhibition of electrically-induced contraction, mouse vas deferens
Description: (§1) In short: vasa deferentia were isolated from male mice weighing 20-30 g (Mellegaard breeding, DK) and suspended through two electrodes in 10 ml baths at resting tension of 1 g. […] The tissues were stimulated electrically (70 V, 1 ms duration; 0.1 Hz) and contractions were recorded isometrically on a chart recorder. After equilibration of the tissue for at least 20 min, drugs were added in the bath and the maximum effects were measured.
Prior to addition of the plasma sample, a standard dose-response curve was generated in each preparation in order to express the inhibitory activity as concentration of each test substance. Thus, the calculated concentration is a reflection of inhibitory activity in the vas deferens bioassay preparation.
Where initial=initial […] contraction force prior to addition of test substance; conc=concentration of test substance; EC50=concentration of test substance that […] produced half maximal inhibition of electrically-induced contraction; background=contraction force during maximal relaxation.

[1] = Hematological responses after p.o. EMP-1 / EMP-1-K6 in mice; format: in vivo; conditions: male mice, 956 nmol p.o., 4 days after administration
Description: To examine the biological efficacy of peroral (p.o.) treatment with EMP-1 (SEQ ID NO: 117) and EMP-1-K6 (SEQ ID NO: 93), the hematological responses of an equimolar p.o. dose (956 nmol) of EMP-1 (2 mg) and EMP-1-K6 (SEQ ID NO: 93) (2.56 mg) were examined in male mice (n=8/group). To examine the time course of the hematological responses, a 10 μl venous blood sample was collected from the retroorbital plexus on days 0, 2, and 4. Body weight (BW) and the plasma concentration of hemoglobin (P-Hgb), the hematocrit value (Hct), the red blood cell count (RBC), and the mean cell hemoglobin concentration (MCHC) were determined before (Day 0), and 2 and 4 days after administration of EMP-1 (SEQ ID NO: 117) or EMP-1- K6 (SEQ ID NO: 93).

leucine aminopeptidase = biological target: T1, leucine aminopeptidase (Sus scrofa, UniProt P28839); experiment: Hydrolysis kinetics in leucine aminopeptidase solution; format: in vitro ADME, porcine; conditions: 50 mM phosphate buffer pH 7.4, 37° C., leucine aminopeptidase 25 U/ml; for half-life: pig
T1 construct: purchased Sigma, UK type III-CP (catalogue number not given); host or cells: porcine kidney
T1 sequence (P28839 1-519): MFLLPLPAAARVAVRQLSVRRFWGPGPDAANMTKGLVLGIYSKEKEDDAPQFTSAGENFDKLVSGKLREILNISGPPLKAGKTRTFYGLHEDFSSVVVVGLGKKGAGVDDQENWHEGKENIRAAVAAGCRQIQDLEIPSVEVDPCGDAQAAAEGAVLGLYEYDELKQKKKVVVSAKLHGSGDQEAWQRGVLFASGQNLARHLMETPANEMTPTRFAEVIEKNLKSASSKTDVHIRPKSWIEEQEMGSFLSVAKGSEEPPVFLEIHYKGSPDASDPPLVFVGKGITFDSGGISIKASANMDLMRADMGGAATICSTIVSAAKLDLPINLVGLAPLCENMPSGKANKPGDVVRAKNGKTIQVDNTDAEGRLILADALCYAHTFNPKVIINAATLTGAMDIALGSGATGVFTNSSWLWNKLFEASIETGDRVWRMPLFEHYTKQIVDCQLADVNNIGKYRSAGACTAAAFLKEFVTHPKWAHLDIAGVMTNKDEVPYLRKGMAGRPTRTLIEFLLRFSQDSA
Description: (§2) Carboxypeptidase A (EC 3.4.17.1) type I from bovine pancreas, leucine aminopeptidase (EC 3.4.11.1) type III-CP from porcine kidney, α-chymotrypsin (EC […]) from bovine pancreas, and pepsin A (EC 3.4.23.1) from porcine stomach mucosa […] were obtained from Sigma, UK.
(§3) Gradient HPLC analysis of samples from in vitro kinetic measurements performed as described below was performed using a Hewlett Packard HP 1100 HPLC system consisting of a HP 1100 Binary Pump, a HPI 100 Autosampler, a HPI 100 Column Thermostat and a HP 1100 Variable Wavelength Detector. A Merck LiChroCART column (125×4 mm I.D.) and a LiChroCART precolumn (4×4 mm I.D.) packed with Lichrospher RP-18 (5 .μum particles) was used. The column was kept at 25° C. or 75° C. and the column effluent was measured by UV detection at 215 run. Separation of the peptide conjugates or the native peptides from degradation products and constituents of the reaction solutions was accomplished using gradient elution of the column with mixtures of mobile phase A (0.1 vol % TFA in water) and mobile phase B (0.085 vol % TFA in acetonitrile) at a flow rate of 1 ml/min.
(§4) The degradation of the peptide conjugate and the corresponding native peptide were studied at 37° C. in a 50 mM phosphate buffer solution at pH 7.4 containing leucine arninopeptidase (25 U/ml) or carboxypeptidase A (1 or 25 U/ml). Experiments were initiated by addition of an aliquot (100 μl) of a stock solution (1 mg/ml) of the peptide conjugate or the native peptide to 900 μl preheated enzyme solution giving a final concentration of ˜0.1 mg/ml (10^−5-10^−4M) of the peptide conjugate or the native peptide. The peptide/enzyme solution was kept at 37° C. using a SHT200D block heater from Stuart Scientific. At appropriate time intervals, samples of 100 μl were withdrawn from the peptide/enzyme solution, mixed thoroughly with 20 μl 25% TFA in acetonitrile in order to stop the enzymatic degradation process and analysed by HPLC as described above. Half-lives (t1/2) for the peptide conjugate and the corresponding native peptide in the enzyme solutions were calculated from plots of the natural logarithm to the concentration of the residual peptide (HPLC peak heights) against time using the formula t/2=1/kobs×ln(2), where kobs is the apparent first-order rate constant for the observed degradation.

carboxypeptidase A = biological target: T2, carboxypeptidase A (Bos taurus, UniProt P00730); experiment: Hydrolysis kinetics in carboxypeptidase A solution; format: in vitro ADME, bovine; conditions: 50 mM phosphate buffer pH 7.4, 37° C., carboxypeptidase A 1 U/ml
T2 construct: purchased Sigma, UK type I (catalogue number not given); host or cells: bovine pancreas
T2 sequence (P00730 111-419): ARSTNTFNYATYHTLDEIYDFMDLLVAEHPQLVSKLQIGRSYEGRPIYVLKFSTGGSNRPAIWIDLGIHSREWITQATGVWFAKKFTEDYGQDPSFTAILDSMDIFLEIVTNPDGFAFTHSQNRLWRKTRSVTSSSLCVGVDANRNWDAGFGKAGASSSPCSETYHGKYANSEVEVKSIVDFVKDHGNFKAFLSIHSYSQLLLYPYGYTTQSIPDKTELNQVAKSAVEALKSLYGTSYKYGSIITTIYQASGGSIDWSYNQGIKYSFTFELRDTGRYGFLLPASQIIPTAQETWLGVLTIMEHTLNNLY
Description: as §2, §3, §4

[2] = Bioavailability in mice: functional activity in serum after p.o. or i.v. dosing (vas deferens bioassay); conditions: 30 min
Description: Blood samples were centrifuged immediately (3000 g, 4° C.) and serum was isolated and used for activity determination.
as §1

osteoblast = experiment: Osteoblast retraction assay; format: cell-based, mice; conditions: 10 nM, 1 h, mouse calvaria osteoblasts
Description: Retraction assays were performed with osteoblast prepared from calvaria of 1-day old mice according to published protocols (Miller et al., 1976, Science 192:1340-1343). In brief, osteoblasts were seeded in serum-free minimal essential medium-α (αMEM) at a density of 3000 cells per cm^2 into 96-well tissue culture plates coated with 50 μg/ml of type I collagen in phosphate-buffered saline containing 0.1% bovine serum albumin (PBS). One day after plating, PTH compounds were added to a final concentration of 10 nM and incubation was carried out for 1 h. Cells were then fixed and stained with toluidine blue, and the number of retracted cells was counted by visual inspection.

H-YGGFLKKEEEK-OH [Leu-Enkephalin-(Lys2-Glu3-Lys)-OH, H-Tyr-Gly-Gly-Phe-Leu-Lys-Lys-Glu-Glu-Glu-Lys-OH]
EC50 (vas deferens): 680 nM

YGGFLKEKEKE [Leu-Enkephalin-(Lys-Glu)3-OH]
EC50 (vas deferens): 350 nM

CC(C)C[C@@H]1NC(=O)[C@@H]2CCCN2C(=O)CNC(=O)[C@H](Cc2ccccc2)NC(=O)[C@H](Cc2c[nH]cn2)NC(=O)[C@@H](NC(=O)[C@H](CO)NC(=O)[C@H](Cc2ccc(O)cc2)NC(=O)[C@@H](NC(=O)CNC(=O)CN)[C@@H](C)O)CSSC[C@@H](C(=O)N[C@@H](CCCCN)C(=O)N2CCC[C@H]2C(=O)N[C@@H](CCC(N)=O)C(=O)NCC(=O)NCC(=O)N[C@@H](CCCCN)C(=O)N[C@@H](CCCCN)C(=O)N[C@@H](CCCCN)C(=O)N[C@@H](CCCCN)C(=O)N[C@@H](CCCCN)C(=O)N[C@@H](CCCCN)C(=O)O)NC(=O)[C@H](C(C)C)NC(=O)[C@H](Cc2c[nH]c3ccccc23)NC(=O)[C@H]([C@@H](C)O)NC1=O [EMP-1-(Lys)6-OH, H-Gly-Gly-Thr-Tyr-Ser-Cys-His-Phe-Gly-Pro-Leu-Thr-Trp -Val-Cys-Lys-Pro-Gln-Gly-Gly-LM-OH] (H-GGTYSCHFGPLTWVCKPQGGKKKKKK-OH; disulfide 6-15)
Change in BW [1]: 3.4 ± 0.3 g
Change in Hematocrit [1]: 4.5 ± 0.9 %
Change in MCHC [1]: 0.2 ± 1.5 mM
Change in P-hgb [1]: +2.4 ± 0.3 mM
Change in RBC [1]: 1.0 ± 0.1* 10^12 cells/1
Relative change in BW [1]: (15 ± 2%)
Relative change in Hematocrit [1]: (12.3 ± 2.3%*)
Relative change in MCHC [1]: (0 ± 2%)
Relative change in P-hgb [1]: (+15 ± 2%*)
Relative change in RBC [1]: (17 ± 2%*)
half-life (leucine aminopeptidase): > 100 h
half-life (carboxypeptidase A): > 20 h

CC(C)C[C@H](NC(=O)[C@H](Cc1ccccc1)NC(=O)CNC(=O)CNC(=O)[C@@H](N)Cc1ccc(O)cc1)C(=O)N[C@@H](CCCN)C(=O)N[C@@H](CCCN)C(=O)N[C@@H](CCCN)C(=O)N[C@@H](CCCN)C(=O)N[C@@H](CCCN)C(=O)N[C@@H](CCCN)C(=O)O [Leu-Enkephalin-(Orn)6-OH, H-Tyr-Gly-Gly-Phe-Leu-(Orn)6-OH] (H-YGGFL[Orn][Orn][Orn][Orn][Orn][Orn]-OH)
EC50 (vas deferens): > 20000 nM
pseudo first-order rate constant for the degradation (leucine aminopeptidase): 0.0064 min⁻¹
half-life (leucine aminopeptidase): 1.8 h
half-life (carboxypeptidase A): > 100 h

CC(C)C[C@H](NC(=O)[C@H](Cc1ccccc1)NC(=O)CNC(=O)CNC(=O)[C@@H](N)Cc1ccc(O)cc1)C(=O)O [Leu-Enkephalin-OH, H-Tyr-Gly-Gly-Phe-Leu-OH, reference compound]
EC50 (vas deferens): 65 nM
Functional activity in serum ([2]; 50 mg/kg i.v.): no activity was detected
Functional activity in serum ([2]; 50 mg/kg p.o.): no activity was detected
pseudo first-order rate constant for the degradation (leucine aminopeptidase): 0.68 min⁻¹
half-life (leucine aminopeptidase): 0.0167 h
pseudo first-order rate constant for the degradation (carboxypeptidase A): 0.98 min⁻¹
half-life (carboxypeptidase A; cattle, carboxypeptidase A solution (1 U/ml) in phosphate buffer): 0.0117 h

YGGFLKKKKKKKKKK [Leu-Enkephalin-(Lys)10-OH, H-Tyr-Gly-Gly-Phe-Leu-Lys10-OH]
EC50 (vas deferens): 2500 nM
half-life (leucine aminopeptidase): > 100 h
half-life (carboxypeptidase A): 38.5 h
pseudo first-order rate constant for the degradation (carboxypeptidase A): 0.0003 min⁻¹

CC(C)C[C@@H]1NC(=O)[C@@H]2CCCN2C(=O)CNC(=O)[C@H](Cc2ccccc2)NC(=O)[C@H](Cc2c[nH]cn2)NC(=O)[C@@H](NC(=O)[C@H](CO)NC(=O)[C@H](Cc2ccc(O)cc2)NC(=O)[C@@H](NC(=O)CNC(=O)CN)[C@@H](C)O)CSSC[C@@H](C(=O)N[C@@H](CCCCN)C(=O)N2CCC[C@H]2C(=O)N[C@@H](CCC(N)=O)C(=O)NCC(=O)NCC(=O)O)NC(=O)[C@H](C(C)C)NC(=O)[C@H](Cc2c[nH]c3ccccc23)NC(=O)[C@H]([C@@H](C)O)NC1=O [EMP-1-OH, H-GIy-Gly-Thr-Tyr-Ser-Cys-His-Phe-Gly-Pro-Leu-Thr-Trp -Val-Cys-Lys-Pro-Gln-Gly-GIy-OH, reference compound] (H-GGTYSCHFGPLTWVCKPQGG-OH; disulfide 6-15)
Change in BW [1]: 3.4 ± 0.2 g
Change in Hematocrit [1]: 0.3 ± 0.8%
Change in MCHC [1]: 2.9 ± 1.5 mM
Change in P-hgb [1]: +1.5 ± 0.5 mM
Change in RBC [1]: 0.6 ± 0.2 10^12 cells/1
Relative change in BW [1]: (16 ± 1%)
Relative change in Hematocrit [1]: (0.8 ± 1.8%)
Relative change in MCHC [1]: (4 ± 2%)
Relative change in P-hgb [1]: (+8 ± 1%)
Relative change in RBC [1]: (9 ± 3%)
pseudo first-order rate constant for the degradation (leucine aminopeptidase): 0.0015 min⁻¹
half-life (leucine aminopeptidase): 7.7 h
half-life (carboxypeptidase A): > 50 h

B1: Parathyroid Hormone: native, human parathyroid hormone (protein, UniProt P01270 32-115, looked up)
Parathyroid hormone: SVSEIQLMHNLGKHLNSMERVEWLRKKLQDVHNFVALGAPLAPRDAGSQRPRKKEDNVLVESHEKSLGEADKADVNVLTKAKSQ
modifications: Parathyroid hormone
Retraction assay % Retracted cells (osteoblast): 63.7%
Retraction assay % Retracted cells (osteoblast; listed as PTH): ~64%

— patent US7414107B2, “Pharmacologically active peptide conjugates having a reduced tendency towards enzymatic hydrolysis” (priority 1998, dated 2008)
